In US11484533B2, “Methods and compositions for treating obesity” (UNIVERSITY OF SOUTH CAROLINA, priority 2019, dated 2022):

Tests used:
DIO mice [1] = conditions: cited from earlier work
DIO mice [2] = assay: Fasting metabolic parameters in DIO mice, pre- and post-intervention; type: in vivo, C57BL/6J male mice; conditions: HFD+SR vs HFD+Veh and HFD-PFSR; pre- and post- 4-week intervention; 5 h fasted
Experimental: C57BL/6J male mice (Jackson Laboratory, Bar Harbor, Me.) were fed HFD consisting of 60% Kcal from fat (D12492, Research Diets Inc, New Brunswick, N.J.) for 12 weeks before starting the intervention treatment with SR141716A. Additionally, age-matched C57BL/6J male mice were fed a low fat diet (LFD) consisting of 10% Kcal from fat (D12450J, Research Diets Inc, New Brunswick, N.J.) to develop lean controls. SR141716A was obtained from NIDA and administered at a dose of 10 mg/kg daily by oral gavage for 4 weeks, beginning after 12 weeks of diet and ending after 16 weeks. A pair-fed control group was used (HFD-PFSR) in which food intake was restricted to the amount of daily food intake of the HFD+SR group. […]
Measurements of blood glucose, insulin, total cholesterol, and triglycerides were performed in animals fasted for 5 hours. […] The glucose level in whole blood was measured with a glucometer (Bayer, Leverkusen, Germany). Insulin concentration was determined in isolated plasma using an ELISA kit (Abcam, Cambridge, Mass.). Total cholesterol (Genzyme, Kent, United Kingdom) and triglycerides (Pointe Scientific, Canton, Mich.) were determined by colorimetric enzymatic reaction according to the manufacturer's instructions. To quantify insulin resistance, the homeostatic model assessment of insulin resistance index (HOMA-IR) was calculated as previously described.

[3] = tested on: adipose tissue macrophages (ATMs); assay: qRT-PCR and Western blot in adipose tissue macrophages (ATM) of treated DIO mice; type: in vivo, C57BL/6J male mice
Experimental: Epididymal fat pads of mice were excised and placed in gentleMACS™ C Tubes (Miltenyi Biotec, San Diego, Calif.) containing digestion medium (HBSS, 2 mg/ml collagenase (Sigma-Aldrich, St. Louis, Mo.) and 2% BSA), followed by homogenization utilizing a gentleMACS™ Dissociator (Miltenyi Biotec). After incubation at 37° C. for 30 minutes with gentle shaking, the cell suspension was filtered through a 100-μm filter and then spun at 300 g for 5 minutes to separate floating adipocytes from the stromal vascular fraction (SVF) pellet. Isolation of F4/80+ ATMs from the SVF was performed using EasySep™ FITC Positive Selection Kit (STEMCELL Technologies, Vancouver, B.C.). FITC-anti-F4/80 antibodies (Clone: BM8, BioLegend®, San Diego, Calif.) were used to label the cells for positive selection. Isolated cells were lysed for RNA analysis in QIAzol (Qiagen, Valencia, Calif.) and stored at −80° C. until RNA purification.
ATM RNA was isolated by miRNeasy Mini Kit (Qiagen). For RNA extraction from whole adipose tissue, 1 mg of adipose tissue was homogenized in RNA-Solv® Reagent with OBI's HiBind® technology reagent (Omega Bio-tek, Norcross, Ga.) and total RNA was isolated as previously described (31). RNA quality was verified by NanoDrop™ 2000C (Thermo Scientific™, Waltham, Mass.). Purified RNA (0.5-1 μg) was reverse-transcribed using miScript cDNA Synthesis Kit (Qiagen), and qRT-PCR analysis was conducted using SsoAdvanced™ Universal SYBR® Green Supermix kit (Bio-Rad, Hercules, Calif.). Fold change in mRNA expression was calculated using the comparative cycle method (2^−ΔΔCt).
Western blot analyses were carried out according to standard protocols with antibodies raised against Netrin-1 (R&D Systems, Minneapolis, Minn.) or γ-tubulin (Sigma-Aldrich, St. Louis, Mo.), which was used as a loading control.

macrophage CB1 = assay: BMDM treated in vitro with 3T3-L1 adipocyte conditioned medium and SR141716A; type: cell-based, mouse; conditions: adipocyte conditioned medium, vs DMSO
Experimental: TNF, IL-6, and IFNγ ELISA kits were purchased from BioLegend. Netrin-1 ELISA kits were purchased from USCN Life Science (Houston, Tex.). Concentrations were measured in cell supernatants using mouse standards according to the manufacturer's guidelines.
Next, to confirm that the M2 polarization and decreased ATM retention observed in HFD+SR treated mice was a direct effect of CB1 blockade and not a secondary effect due to weight loss or other factors, primary macrophages were treated in vitro with 3T3-L1 adipocyte conditioned media and SR141716A or DMSO vehicle control. […] These findings confirmed that blockade of macrophage CB1 signaling has anti-inflammatory effects.

[4] = tested on: epididymal adipose tissue; assay: qRT-PCR of macrophage polarization genes in epididymal fat of DIO mice; type: in vivo, C57BL/6J male mice
Experimental: (§1) C57BL/6J male mice (Jackson Laboratory, Bar Harbor, Me.) were fed HFD consisting of 60% Kcal from fat (D12492, Research Diets Inc, New Brunswick, N.J.) for 12 weeks before starting the intervention treatment with SR141716A. Additionally, age-matched C57BL/6J male mice were fed a low fat diet (LFD) consisting of 10% Kcal from fat (D12450J, Research Diets Inc, New Brunswick, N.J.) to develop lean controls. SR141716A was obtained from NIDA and administered at a dose of 10 mg/kg daily by oral gavage for 4 weeks, beginning after 12 weeks of diet and ending after 16 weeks. A pair-fed control group was used (HFD-PFSR) in which food intake was restricted to the amount of daily food intake of the HFD+SR group. All mice were maintained in an AAALAC-accredited animal facility at the University of South Carolina, School of Medicine (Columbia, S.C.). All procedures were performed according to NIH guidelines under protocols approved by the Institutional Animal Care and Use Committee.
After 4 weeks of treatment, mice were euthanized for tissue collection. Tissues were removed, weighed, and immediately processed to single cell suspension, snap-frozen in liquid nitrogen and stored at −80° C., or fixed in 10% formalin.
ATM RNA was isolated by miRNeasy Mini Kit (Qiagen). […] Fold change in mRNA expression was calculated using the comparative cycle method (2^−ΔΔCt).

obese patients = conditions: cited from earlier work
[5] = tested on: thioglycollate-elicited peritoneal macrophages; assay: Migration of peritoneal macrophages towards CCL19; type: cell-based, mouse; conditions: SR141716A 10^−6 M vs DMSO; CCL19 500 ng/ml; 3T3-L1 conditioned medium
Experimental: The migration of macrophages to CCL19 (500 ng/ml, R&D Systems) was assessed by FluoroBlock™ permeable inserts (Corning®, Tewksbury, Mass.) and Cytation™5 imaging (BioTek, Winooski, Vt.). Peritoneal macrophages were harvested from mice primed with 1 ml of 3% (wt/vol) thioglycolate (i.p.) to elicit peritoneal exudates with macrophage number peaking on day 4. Macrophages were collected in euthanized mice by intraperitoneal wash. For tracking migration towards chemoattractants, macrophages were labeled with DilC12(3) fluorescent dye (Corning®, Tewksbury, Mass.). Macrophages were treated with conditioned media from 3T3-L1 adipocytes as described and treated either with SR141716A (10^−6 M) or DMSO as the vehicle control.
To test this, thioglycollate-elicited peritoneal macrophages were isolated and cultured them in 3T3-L1 adipocyte conditioned medium and treated them with SR141716A or vehicle. Their migration rate towards CCL19 was measured because CCL19 is the primary chemokine implicated in emigration of tissue macrophages towards draining lymph nodes.

DIO mice [6] = assay: Diet-induced obesity (DIO) mice treated with SR141716A: body weight, caloric intake, DEXA body composition; type: in vivo, C57BL/6J male mice
Experimental: as §1
The body composition in mice was analyzed by dual-energy X-ray absorptiometry (DEXA, LUNAR, Madison, Wis.). The mice were anesthetized and placed in the prone position on the specimen tray to allow scanning of the entire body. For food intake measurements, mice were given a defined amount of large intact food pellet weekly, or daily for the HFD-PFSR group. Food weight was measured using a balance with a precision of 0.01 g. Solid food intake was corrected for any visible spillage.
To study the effects of CB1 antagonist on obesity parameters, DIO mice that were fed a 60% HFD for 12 weeks were treated with SR141716A (SR) by daily oral gavage for 4 weeks (FIG. 1A). All other experimental groups were treated with the vehicle (Veh) 0.1% Tween® 80. In addition to the HFD+SR group, other experimental groups included mice fed a 10% low-fat control diet (LFD) (LFD+Veh), ad-libitum HFD-fed mice (HFD+Veh), and HFD-fed mice that were pair-fed to the HFD+SR group (HFD-PFSR) (FIG. 1B). […] At the baseline of the study, the mice were stratified into groups balanced by mean fat mass. […] Fasting parameters including blood glucose, insulin, insulin resistance index (HOMA-IR), total cholesterol and triglycerides were examined pre- and post- the 4-week intervention with SR compound.

[7] = epididymal adipose tissue of DIO mice, previous report
[8] = DIO mice, 10 mg/kg daily oral gavage, 4 weeks
[9] = after 4 weeks of treatment, HFD+SR vs both HFD+Veh and HFD-PFSR, DEXA

## Cc1c(C(=O)NN2CCCCC2)nn(-c2ccc(Cl)cc2Cl)c1-c1ccc(Cl)cc1 [SR141716A, 5-(4-chlorophenyl)-1-(2,4-dichlorophenyl)-4-methyl-N-piperidin-1-ylpyrazole-3-carboxamide]
DIO mice [1]; HFD+SR vs HFD+Veh, previously demonstrated
  number of pro-inflammatory M1 macrophages in adipose tissue: significant decrease
DIO mice [1]; [7]
  ATM infiltration: reduces both ATM infiltration and M1 polarization
  M1 polarization: reduces both ATM infiltration and M1 polarization
DIO mice [2]
  metabolic parameters (fasting blood glucose, insulin, HOMA-IR, total cholesterol, triglycerides): improvement in metabolic parameters
[3]; ATM, HFD+SR vs HFD+Veh, Western blot and qRT-PCR
  Netrin-1 expression at protein and transcription level: significantly reduced
[3]; ATMs, microarray validated by qRT-PCR, regardless of calorie intake
  miR-466 family expression: down-regulated
[3]; ATMs, qRT-PCR
  Agap2 expression: increased
  miR-762 expression: reduced
[3]; HFD+SR vs HFD+Veh
  Unc5b expression: downregulated
Macrophage CB1; BMDM
  Klf4 expression: induction of Klf4 and Stat6
  Stat6 expression: induction of Klf4 and Stat6
Macrophage CB1; macrophages, ELISA
  Netrin-1 secretion: reduced
[4]
  Arg1 (M2) expression: increased expression of Arg1
  Nos2 (M1) expression: lowered Nos2 expression
Obese patients; obese patients, compared with placebo
  weight loss: greater weight loss
Obese patients; reason for removal from the market
  adverse effects: adverse psychiatric effects
[5]
  migration towards CCL19: higher migration towards CCL19
DIO mice [6]; [8]
  body weight: acute and persistent weight loss
  calorie intake: transient reduction of calorie intake
DIO mice [6]; after 4 weeks of treatment, HFD+SR vs HFD+Veh and HFD-PFSR, DEXA
  changes in lean mass: not significant
DIO mice [6]; [9]
  fat mass: reduction in the fat mass and fat percentage was significant
  fat percentage: reduction in the fat mass and fat percentage was significant
